Test results taken from ChEMBL document CHEMBL3351934, “Monocyclic 4-amino-6-(phenylamino)-1,3,5-triazines as inhibitors of human DNA topoisomerase IIα” (Bioorg Med Chem Lett, 2014).
Activity calls are given as the source filed them. No cut-off for these calls is given here.

How the values were obtained:
[1] = biological target: DNA topoisomerase 2-alpha (Homo sapiens, UniProt P11388); experiment: Inhibition of human DNA topoisomerase 2alpha using plasmid pNO1 substrate incubated at 37 degC for 30 mins by fluorimetry
Chain of DNA topoisomerase 2-alpha (P11388 whole entry): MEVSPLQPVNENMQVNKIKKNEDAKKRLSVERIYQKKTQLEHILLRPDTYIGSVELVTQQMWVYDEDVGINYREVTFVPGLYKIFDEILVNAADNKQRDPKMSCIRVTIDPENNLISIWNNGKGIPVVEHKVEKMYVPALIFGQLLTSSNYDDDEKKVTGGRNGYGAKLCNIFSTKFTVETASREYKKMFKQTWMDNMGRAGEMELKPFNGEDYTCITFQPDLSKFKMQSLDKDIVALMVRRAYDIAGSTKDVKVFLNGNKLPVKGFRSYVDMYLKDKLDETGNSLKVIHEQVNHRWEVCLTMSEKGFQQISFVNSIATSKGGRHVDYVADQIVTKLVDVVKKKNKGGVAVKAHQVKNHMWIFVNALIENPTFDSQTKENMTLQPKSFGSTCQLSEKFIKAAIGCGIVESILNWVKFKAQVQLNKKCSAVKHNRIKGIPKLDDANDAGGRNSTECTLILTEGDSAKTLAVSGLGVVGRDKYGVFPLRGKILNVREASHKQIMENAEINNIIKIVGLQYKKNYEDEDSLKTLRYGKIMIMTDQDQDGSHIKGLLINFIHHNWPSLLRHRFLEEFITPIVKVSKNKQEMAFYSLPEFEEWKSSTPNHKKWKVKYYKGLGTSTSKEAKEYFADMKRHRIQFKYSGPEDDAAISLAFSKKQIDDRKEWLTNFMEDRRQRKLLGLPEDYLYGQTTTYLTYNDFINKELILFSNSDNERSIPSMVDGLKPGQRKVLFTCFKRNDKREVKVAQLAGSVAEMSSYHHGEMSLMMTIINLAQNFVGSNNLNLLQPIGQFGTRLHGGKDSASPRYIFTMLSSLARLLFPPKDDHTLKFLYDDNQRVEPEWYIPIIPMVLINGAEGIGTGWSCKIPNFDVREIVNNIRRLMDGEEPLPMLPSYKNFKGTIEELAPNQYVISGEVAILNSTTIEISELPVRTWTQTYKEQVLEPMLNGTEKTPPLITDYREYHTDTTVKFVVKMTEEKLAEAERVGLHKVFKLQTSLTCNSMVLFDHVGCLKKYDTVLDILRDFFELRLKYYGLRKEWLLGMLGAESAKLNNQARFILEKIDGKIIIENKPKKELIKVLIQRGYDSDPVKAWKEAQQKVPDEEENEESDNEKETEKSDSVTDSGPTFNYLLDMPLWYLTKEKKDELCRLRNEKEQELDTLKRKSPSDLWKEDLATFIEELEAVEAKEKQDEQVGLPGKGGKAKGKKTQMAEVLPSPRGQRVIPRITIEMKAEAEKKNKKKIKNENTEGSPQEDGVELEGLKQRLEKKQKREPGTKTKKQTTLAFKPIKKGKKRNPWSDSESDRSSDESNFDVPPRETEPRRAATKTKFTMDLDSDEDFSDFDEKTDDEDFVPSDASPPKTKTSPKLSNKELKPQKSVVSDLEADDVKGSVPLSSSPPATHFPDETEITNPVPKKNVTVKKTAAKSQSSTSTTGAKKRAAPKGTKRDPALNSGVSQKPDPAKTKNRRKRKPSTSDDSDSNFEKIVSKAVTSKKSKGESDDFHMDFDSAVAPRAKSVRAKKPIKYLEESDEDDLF

MCF7 [2] = experiment: Cytotoxic activity against human MCF7 cells assessed as reduction in cell viability at 6.25 to 25 after 24 hrs by MTT assay; type: functional, cell-based
HepG2 [3] = experiment: Cytotoxic activity against human HepG2 cells assessed as reduction in cell viability after 24 hrs by MTT assay; conditions: HepG2, 24 h
MCF7 [4] = experiment: Cytotoxic activity against human MCF7 cells assessed as reduction in cell viability after 24 hrs by MTT assay; conditions: MCF7, 24 h
MCF7 [5] = experiment: Cytotoxic activity against human MCF7 cells assessed as reduction in cell viability at 200 uM after 24 hrs by MTT assay; type: functional, cell-based
HepG2 [6] = experiment: Cytotoxic activity against human HepG2 cells assessed as reduction in cell viability at 200 uM after 24 hrs by MTT assay; type: functional; conditions: HepG2, 24 h
HepG2 [7] = experiment: Cytotoxic activity against human HepG2 cells assessed as reduction in cell viability at 50 to 100 uM after 24 hrs by MTT assay; type: functional, cell-based
[8] = Cytotoxic activity against HUVEC assessed as reduction in cell viability at 200 uM after 24 hrs by MTT assay; type: cell-based; conditions: human, HUVEC cells; read-out: INH
HepG2 [9] = experiment: Cytotoxic activity against human HepG2 cells assessed as reduction in cell viability at 6.25 to 25 after 24 hrs by MTT assay; type: functional, cell-based
HUVEC = experiment: Cytotoxic activity against HUVEC assessed as reduction in cell viability after 24 hrs by MTT assay; type: cell-based, Homo sapiens

Row | SMILES | IC50 [1] [µM] | also measured
1 | Cc1cc(O)nc(N/N=C\c2ccncc2)n1 | > 1000 | 
2 | C[C@H](Sc1nc(N)cc(O)n1)C(=O)N1CCOCC1 | > 1000 | 
3 | CN1CCN(C(=S)SCc2nc(N)nc(Nc3ccc(F)cc3)n2)CC1 | > 1000 | 
4 | O=C(NCc1n[nH]c(=S)n1-c1ccccc1)c1ccccc1C(F)(F)F | > 1000 | 
5 | COc1ccc(CNc2ncccc2C(N)=O)cc1OC | > 1000 | 
6 | C[C@H](Sc1nc(N)nc(N)n1)C(=O)N1CCOCC1 | > 1000 | 
7 | Nc1nc(CSC2CCCC2)nc(Nc2ccc(F)cc2)n1 | > 1000 | 
8 | Nc1nc(CSc2nnc(C3CC3)o2)nc(Nc2ccc(F)cc2)n1 | > 1000 | 
9 | Cc1cc(O)nc(NCCCn2ccnc2)n1 | > 1000 | 
10 | Cc1cc(CNc2nc3c(cc2C(N)=O)CCC3)ccn1 | > 1000 | 
11 | Nc1nc(CSc2nnnn2C2CCCC2)nc(Nc2ccc(F)cc2)n1 | > 1000 | 
12 | Nc1nc(N)nc(CSc2nnc(-c3cccnc3)o2)n1 | > 1000 | 

Now from value to compound, other results behind:

Row | IC50 [1] [µM] | SMILES | also measured
13 | > 1000 | COc1ccc(Nc2nc(N)nc(CSC(=S)N3CCCCC3)n2)cc1 | 
14 | > 1000 | CN(C(=S)SCc1nc(N)nc(Nc2ccc(F)cc2)n1)C1CCCCC1 | 
15 | 229 | COc1ccc(Nc2nc(N)nc(CSC(=S)N3CCOCC3)n2)cc1 | inhibition (MCF7 [2]): inactive; EC50 (HepG2 [3]): 20.5 µM; EC50 (MCF7 [4]): 129 µM; inhibition (MCF7 [5]): Active; inhibition at 200 µM (HepG2 [6]): 90%; inhibition (HepG2 [7]): Active; cytotoxicity at 24 h, 200 µM [8]: 90%; inhibition (HepG2 [9]): inactive; EC50 (HUVEC; Homo sapiens, HUVEC): 122 µM; inhibition (INH) (HUVEC; human, huvec): Dose-dependent effect
16 | > 1000 | Cc1cc(CNc2nc(C)ccc2C(N)=O)ccn1 | 
17 | > 1000 | COc1cccc(C(=O)NCc2nnc(S)n2-c2ccc(Cl)c(Cl)c2)c1 | 
18 | > 1000 | Cc1cc(O)nc(N/N=C\c2cccnc2)n1 | 
19 | 337 | Nc1nc(CSc2nnn[nH]2)nc(Nc2ccc(F)cc2)n1 | 
20 | > 1000 | COc1cccc(C(=O)NCc2n[nH]c(=S)n2-c2ccccc2Cl)c1 | 
21 | > 1000 | Cn1nnnc1SCc1nc(N)nc(Nc2ccc(F)cc2)n1 | 
22 | > 1000 | CCCn1ccnc1SCc1nc(N)nc(Nc2ccc(F)cc2)n1 | 
23 | > 1000 | O=C(NCc1n[nH]c(=S)n1-c1ccc(F)cc1)c1ccccc1F | 
24 | > 1000 | Cc1cc(CNc2ncccc2C(N)=O)ccn1 | 
25 | 85 | Nc1nc(SCCc2ccccc2)c2nc[nH]c2n1 | 
26 | 139 | Nc1nc(CSC(=S)N2CCOCC2)nc(Nc2ccc(F)cc2)n1 | 
